Experimental data: patent US7101853B2 (Amylin Pharmaceuticals, Inc., priority 1997, dated 2006)
Like-named read-outs stand apart in the source and are kept apart here. Where no end group is shown, it is not given here.

Tests used:
[1] = system: treated test animals; experiment: Amylin activity in vivo in treated test animals
[2] = system: ethanol- or indomethacin-induced gastritis in rats; conditions: cited from earlier work
[3] = in rats, in rabbits, and in humans with Paget's disease; cited from earlier work
[4] = biological target: amylin receptor (membrane-bound, rat basal forebrain membranes containing the nucleus accumbens and surrounding regions) (rat); experiment: competition with 125I-rat amylin on rat basal forebrain membranes
[5] = system: diabetic BB rats; experiment: Phenol red gastric emptying assay, diabetic rats; assay type: in vivo, rat; conditions: 10 μg s.c. 5 minutes before gavage
From the text: (§1) Briefly, conscious rats received by gavage. […] Twenty minutes after gavage, rats were anesthetized using 5% halothane, the stomach exposed and clamped at the pyloric and lower esophageal sphincters using artery forceps, removed and opened into an alkaline solution which was made up to a fixed volume. Stomach content was derived from the intensity of the phenol red in the alkaline solution, measured by absorbance at a wavelength of 560 nm. In most experiments, the stomach was clear. In other experiments, particulate gastric contents were centrifuged to clear the solution for absorbance measurements. Where the diluted gastric contents remained turbid, the spectroscopic absorbance due to phenol red was derived as the difference between that present in alkaline vs acetified diluent. […] The quantity of phenol red that could be recovered from the upper gastrointestinal tact within […] of gavage was 89±4%; dye which appeared to bind irrecoverably to the gut luminal surface may have accounted for the balance. To compensate for this small loss, percent of stomach contents remaining after 20 minutes were expressed as a fraction of the gastric contents recovered from control rats sacrificed immediately after gavage in the same experiment. Percent gastric emptying contents remaining=(absorbance at 20 min)/(absorbance at 0 min). […]

[6] = system: ethanol gavaged rat; experiment: Gastroprotection: ethanol-induced mucosal damage in the ethanol gavaged rat; assay type: in vivo
From the text: The gastroprotective properties of amylin in an animal model for gastritis—the ethanol gavaged rat—are described in this example.
Mucosal damage was scored between 0 (no damage) and 5 (100% of stomach covered by hyperemia and ulceration) by investigators blinded to the treatment. […] This prediction was obtained by applying the published relationship between injected subcutaneous dose and peak plasma concentration in rats. Young, A. A. et al., Drug Devel. Res. 37:231-48 (1996). […] Mimicking this physiological effect is unlikely to result in unwanted side effects, as is often the case with administration of unphysiological xenobiotics.

[7] = system: Harlan Sprague Dawley rats; experiment: Tritiated glucose gastric emptying assay; assay type: in vivo, rat
Description: Conscious, non-fasted, Harlan Sprague Dawley rats were restrained by the tail, the tip of which was anesthetized using 2% lidocaine. Tritium in plasma separated from tail blood collected 0, 15, 30, 60, 90 and 120 minutes after gavage was detected in a beta counter.

[8] = system: Harlan Sprague Dawley (non-diabetic) rats; experiment: Phenol red gastric emptying assay, normal rats; assay type: in vivo, rat; conditions: 1 μg s.c. 5 minutes before gavage, normal HSD rats
From the text: as §1

In the case of `CC[C@H](C)[C@H](NC(=O)[C@@H]1CCCN1C(=O)CNC(=O)[C@H](Cc1ccccc1)NC(=O)[C@H](CC(N)=O)NC(=O)[C@H](CC(N)=O)NC(=O)[C@H](CO)NC(=O)[C@H](CO)NC(=O)[C@H](Cc1c[nH]cn1)NC(=O)[C@@H](NC(=O)[C@H](CC(C)C)NC(=O)[C@H](Cc1ccccc1)NC(=O)[C@H](CC(N)=O)NC(=O)[C@H](C)NC(=O)[C@H](CC(C)C)NC(=O)[C@H](CCCNC(=N)N)NC(=O)[C@H](CCC(N)=O)NC(=O)[C@@H](NC(=O)[C@H](C)NC(=O)[C@@H]1CSSC[C@H](NC(=O)[C@@H](N)CCCCN)C(=O)N[C@@H](CC(N)=O)C(=O)N[C@@H]([C@@H](C)O)C(=O)N[C@@H](C)C(=O)N[C@@H]([C@@H](C)O)C(=O)N1)[C@@H](C)O)C(C)C)C(=O)N[C@@H](CC(C)C)C(=O)N1CCC[C@H]1C(=O)N1CCC[C@H]1C(=O)N[C@H](C(=O)N[C@@H](CC(N)=O)C(=O)N[C@H](C(=O)NCC(=O)N[C@@H](CO)C(=O)N[C@@H](CC(N)=O)C(=O)N[C@H](C(=O)N[C@@H](Cc1ccc(O)cc1)C(N)=O)[C@@H](C)O)C(C)C)[C@@H](C)O` [^25,28,29Pro-h-Amylin], the “Amylin activity in vivo” value [1] is reported as “show amylin activity in vivo”.
For “amylin (KCNTATCATQRLANFLVHSSNNFGAILSSTNVGSNTY; not fully specified (C-terminus, bridges); cysteine pairing not given here; UniProt P10997 34-70, looked up) [amylin as named in the cited literature, species form not specified at the place]”, the “Effect on ethanol- or indomethacin-induced gastritis” value ([2]; intracerebroventricular injections) is listed as “did have an effect”, the “Effect on ethanol- or indomethacin-induced gastritis” value ([2]; subcutaneous injections) is listed as “no effect” and the “Lowering of plasma calcium” value [3] is listed as “up to 20%”.
With “des-^1Lys-h-amylin (CNTATCATQRLANFLVHSSNNFGAILSSTNVGSNTY)” the “Amylin activity in vivo” value [1] was “show amylin activity in vivo”.
For “purified human amylin (from UniProt P10997 34-70) (peptide)”, the IC50 [4] was 0.05 nM.
For rat amylin, the “Suppression of gastric emptying” value [5] was “complete”, the “Mucosal damage, percent of scores in the saline-treated controls” value (“Mucosal damage, percent of scores” below) ([6]; 0.001 μg s.c. 5 min before gavage of 1 ml absolute ethanol) was 95.3±15.2% and the “Mucosal damage, percent of scores” value ([6]; 0.01 μg s.c. 5 min before gavage of 1 ml absolute ethanol) was 76.6±13.8%. For the same molecule, the “Mucosal damage, percent of scores” value ([6]; 0.1 μg s.c. 5 min before gavage of 1 ml absolute ethanol) was 70.1±10.7%, the “Mucosal damage, percent of scores” value ([6]; 0.3 μg s.c. 5 min before gavage of 1 ml absolute ethanol) was 33.9±7.7% and the “Mucosal damage, percent of scores” value ([6]; 1 μg s.c. 5 min before gavage of 1 ml absolute ethanol) was 59.6±5.8%. For the same molecule, the “Mucosal damage, percent of scores” value ([6]; 3 μg s.c. 5 min before gavage of 1 ml absolute ethanol) was 35.6±11.5%, the “Mucosal damage, percent of scores” value ([6]; 10 μg s.c. 5 min before gavage of 1 ml absolute ethanol) was 32.9±8.3% and the “Predicted increase in circulating amylin concentrations at the 50% gastroprotective dose” value ([6]; […] s.c., from published relationship between s.c. dose and peak plasma concentration in rats) was 1.8 ± 0.4 pM. For the same molecule, the “Reduction of the injury score” value ([6]; as observed with the 10 μg dose) was “up to 67%”, the “ED50 for the gastroprotective effect” value ([6]; s.c., ±0.4 log units) was 0.036 μg/rat and the “Effect on absorption of the label (plasma tritium)” value ([7]; s.c. 0.1-100 μg 1 minute before gavage) was “dose-dependently slowed and/or delayed the absorption of the label”. For the same molecule, the “ED50 derived from the logistic fit (plasma tritium AUC over 30 minutes vs dose)” value ([7]; s.c. 1 minute before gavage of tritiated glucose) was 0.35 μg and the “Suppression of gastric emptying” value [8] was “complete”.
